# Assays:
# [1] = system: alloxan hyperglycemia model mice; test: Blood glucose of alloxan hyperglycemia model mice, comparison of extraction methods (Test Case 4); type: in vivo, KM mice; conditions: dose 0.5 mg, fasting
# Description: Take 460 KM mice, with a weight of (20±2) g, half male and half female, let them to adapt to the environment for 7 days. Randomly select 6 male mice and 6 female mice as the blank control group, keep them fasted but water is supplied to them for 18 hours, use the physiological saline to prepare the 1.1% alloxan, and store it in an ice water bath. Carry out the intraperitoneal injection according to the ratio of 110 mg/kg, the control group is injected with the isodose physiological saline, let them eat after 1 h recovery. Use the same modeling method in the second day. 3 days later (72 h, normal diet), then fasting 12 hours, and then cut their tails to take a few drops of blood, and then fasting blood glucose is measured with glucose oxidase method, the mice with the blood glucose value greater than 11.1 mmol/L are the mice that successfully modeled.
# Among the 460 KM mice, 12 of them belong to the blank control group, the remaining mice are used to modeling. After the modeling the mice with the blood glucose values measured greater than 11.1 mmol/L. In the design process each experimental group has 12 mice.
# Take the model mice, randomly divide then into 16 groups, namely the water extraction (high, medium and low) dose group, the alcohol extraction (high, medium and low) dose group, the water and alcohol extraction (high, medium and low) dose group, the modeling group, positive group and blank control group (normal mice), please refer to Table 1.
# Use surgical scissors to cut 2-3 mm of a mouse tail, press the tail to take a few drops of blood and place in the EP tube, first add 12 μL 15 g/L bipotassium EDTA solution, high speed centrifuge it (10000 r/min) for 5 min. Wait till the blood is stratified, take the upper layer serum 10 μL, plus 30 μL physiological saline, shake it evenly; and take 10 μL the dilute serum and put into a EP tube, add 1 mL glucose (Glu) oxidase, shake it evenly, keep at 37° C. for 15 min, the sample (U) is to be measured. Then take the physiological saline and calibrator (c) 10 μL respectively, add 1 mL glucose oxidase, shake evenly, keep at 37° C. for 15 min, determine the absorbance (A) with 505 nm wavelength after adjusting the blank tube to zero. […]
# (§1) This experiment adopts the GOD-POD method for determination of serum glucose concentration, the principle of this method is POD in serum glucose is oxidized into D-gluconic acid in the presence of GOD, and generate H2O2; the latter and 4-amino antipyrine and phenol form red benzophenone imine under the effect of peroxidase (POD) benzophenone imine, the depth of the color of the ketone compounds is directly proportional to the content of glucose. Determine the absorbance values of the standard tube and the sample tube respectively, and then calculate the content of glucose.
# [2] = system: alloxan hyperglycemia model mice; test: Efficacy test of tablet, oral liquid, capsule, granules in alloxan hyperglycemia model mice (Test Cases 5-8); type: in vivo, KM mice; conditions: dose 0.5 mg
# Description: Take 80 KM mice, with a body weight of (20+2) g, half male and half female, and let them to adapt to the environment for 7 days. Randomly select 6 male mice and female mice as the blank control group, fasted and supplied with water for 18 h. Prepare 1.1% alloxan with physiological saline, and keep it in ice water bath. Carry out intraperitoneal injection according to a dose of 110 mg/kg, the mice of the control group are to be injected with physiological saline, and then fast them 12 hours, use the same modeling method in the second day. 3 days later (72 h, restore to normal diet), then fast 12 h, and then cut the tail to take a few drops of blood. The fasting blood glucose was measured with glucose oxidase method. The mice that have a blood glucose value greater than 11.1 mmol/L are mice that have been successfully modeled.
# Among the 80 KM mice, 12 are as the blank control group, the remaining mice are used to modeling. After modeling, find the mice with the blood glucose values measured more than 11.1 mmol/L. In the experiment design process each group is set with 12 mice, the number of female mice are larger in the experimental results, so the number of female mice designed a dose is 6-8 only (8 with only statistical significance), the tails of some of the male model mice may be damaged, which is not conducive to the blood sampling in the next step, therefore it is not designed in this experimental group.
# Use surgical scissors to cut 2-3 mm of a mouse tail, press the tail to take a few drops of blood and place in the EP tube, first add 12 μL 15 g/L bi-potassium EDTA solution, high speed centrifuge it (10000 r/min) for 5 min. Wait till the blood is stratified, take the upper layer serum 10 μL, plus 30 μL physiological saline, shake it evenly; and take 10 μL the dilute serum and put into a EP tube, add 1 mL glucose (Glu) oxidase, shake evenly, keep at 37° C. for 15 min, the sample (U) is to be measured. Then take the physiological saline and calibrator (c) 10 μL respectively, add 1 mL glucose oxidase, shake it evenly, keep at 37° C. for 15 min, determine the absorbance (A) with 505 nm wavelength after adjusting the blank tube to zero. Sample Glu (mmol/L)=Au/Ac*Cc
# Determine the fasting blood glucose values corresponding to the administration of 7 d, 14 d, 21 d and 28 d after the success of modeling (fasted but water is supplied for 12 h).
# as §1
# [3] = system: 3T3-L1 adipocyte IR model; test: Influence of glucose utilization on the 3T3-L1 adipocyte insulin resistance (IR) model; type: cell-based, mouse
# Description: 3T3-L1 mouse embryonic fibroblast cells, are derived from the Institute of Life Science of Chinese Academy of Sciences. Plant the 3T3-L1 preadipocytes into the 25 cm2 cell culture plate, add 6 ml normal culture medium, keep it at culture conditions of 37° C. and 5% CO2, change liquid in the next day. Pass or store it in freezing conditions after the 80% cell fused.
# Inoculate the 3T3-L1 preadipocytes at the density of 5×10^3 in a 24-hole culture plate, wait until the cells grow to contact inhibition, replace the cell culture medium with differentiation liquid A (0.5 mmol/L IBMX, 0.1 umol/L DEX, 10 mg/L INS) and culture them for 48 h, then replace with the induction differentiation liquid (10 mg/L) to continuously culture for 48 h B, change the normal culture medium to continue culturing, and change the liquid once every 2 days, 90% of the above induced differentiation cells will have a mature phenotype after 6-8 days.
# After counting the 3T3-L1 cells in logarithmic growth phase, inoculate them at the density of 5*10^3 each hole onto 24-hole culture plate, then put the culture plate into the CO2 incubator, under the conditions of a temperature of 37° C., 5% CO2 and saturated humidity, culture them to growth inhibition, induction differentiation to mature adipocytes. Add the following processing factors: • The control group shall be continued with their normal culture medium (DMEM high glucose culture liquid containing 10% FBS) • The model group shall be given 1 umol DEX normal culture medium; • Other cells shall be used in each drug group experiment
# After counting the 3T3-L1 cell in logarithmic growth phase, inoculate each hole with density of 5×10^3 cells in 24-hole culture plate. According to the IR models preparation method of 2.3, divide the mature 3T3-L1 adipocytes into a normal culture group and model group, the model group can also be divided into a model control group and each drug group. The model group shall be given 1 umol DEX to react for 48 h. After the models are built, administer the drug as per the experimental groups and the concentration of drug, in 3 parallel plates. In 24 h, 48 h the cell morphologies shall be observed and take the supernatant to be tested on the semi automatic biochemical instrument, determine the glucose (GLU) content in the culture solution according to the descriptions of the kit.
smiles,measurement,setting,value
C[C@H]1O[C@H](O[C@H]2[C@H](O)[C@@H](O)[C@@H](O[C@H]3[C@H](O)[C@@H](O)C(O)O[C@@H]3CO)O[C@@H]2CO)[C@H](O)[C@@H](O)[C@@H]1N[C@H]1C=C(CO)[C@@H](O)[C@H](O)[C@H]1O (stereo partly shown) [Acarbose],Blood glucose level 7 d,[1]; 7 d,19.23 ± 7.54 mmol/L
same,Blood glucose level 14 d,[1]; 14 d,18.00 ± 6.99 mmol/L
same,Blood glucose level 21 d,[1]; 21 d,19.99 ± 6.69 mmol/L
same,Blood glucose level 28 d,[1]; 28 d,22.81 ± 7.72 mmol/L
same,Blood glucose level 7 d,[2]; Table 8,19.23 ± 7.54 mmol/L
same,Blood glucose level 14 d,[2]; Table 8,18.00 ± 6.99 mmol/L
same,Blood glucose level 21 d,[2]; Table 8,19.99 ± 6.69 mmol/L
same,Blood glucose level 28 d,[2]; Table 8,22.81 ± 7.72 mmol/L
same,Blood glucose level 7 d,[2]; Table 9,19.23 ± 7.54 mmol/L
same,Blood glucose level 14 d,[2]; Table 9,18.00 ± 6.99 mmol/L
same,Blood glucose level 21 d,[2]; Table 9,19.99 ± 6.69 mmol/L
same,Blood glucose level 28 d,[2]; Table 9,22.81 ± 7.72 mmol/L
same,Blood glucose level 7 d,"[2]; Table 10, in mmol/L",19.23 ± 7.54
same,Blood glucose level 14 d,"[2]; Table 10, in mmol/L",18.00 ± 6.99
same,Blood glucose level 21 d,"[2]; Table 10, in mmol/L",19.99 ± 6.69
same,Blood glucose level 28 d,"[2]; Table 10, in mmol/L",22.81 ± 7.72
same,Blood glucose level 7 d,"[2]; Table 11, in mmol/L",19.23 ± 7.54
same,Blood glucose level 14 d,"[2]; Table 11, in mmol/L",18.00 ± 6.99
same,Blood glucose level 21 d,"[2]; Table 11, in mmol/L",19.99 ± 6.69
same,Blood glucose level 28 d,"[2]; Table 11, in mmol/L",22.81 ± 7.72
CN(CCOc1ccc(CC2SC(=O)NC2=O)cc1)c1ccccn1 (stereo not shown) [ROG],Average 24 h GLU content,"[3]; 3.125 ug/ml, first series",22.24 mmol/L
same,Average 48 h GLU content,"[3]; 3.125 ug/ml, first series",20.46 mmol/L
same,Average 24 h GLU content,"[3]; 12.5 ug/ml, first series",22.04 mmol/L
same,Average 48 h GLU content,"[3]; 12.5 ug/ml, first series",21.67 mmol/L
same,Average 24 h GLU content,"[3]; 50 ug/ml, culture supernatant, first series (model control 23.08)",21.84 mmol/L
same,Average 48 h GLU content,"[3]; 50 ug/ml, culture supernatant, first series (model control 22.18)",20.53 mmol/L
same,Average 24 h GLU content,"[3]; 100 ug/ml, second series (model control 27.72)",25.38 mmol/L
same,Average 48 h GLU content,"[3]; 100 ug/ml, second series (model control 26.27)",24.64 mmol/L

# Source: patent publication US9623065B2, “Kind of polygonum capitatum extract, its application and a preparation containing the polygonum capitatum extract” (Zhejiang Sanzheng Biotechnology Co., Ltd., priority 2013, dated 2017)
